A short description of data set [1]: acute oral toxicity in mice. The settings on record: orally administered.
In data set [2] the test system is carrageenin-induced paw inflammation. Kind of data set: paw inflammation induced by carrageenin in mice. The format is in vivo. The settings on record: for anti-inflammatory effects relative to nimesulide (times stronger): 0.243 mM/kg vs nimesulide 0.243 mM/kg; for anti-inflammatory effects relative to nimesulide (times stronger) / Paw Swelling mm (M ± SD) at 3 hours: at 3 hours; for anti-inflammatory effects compared with nimesulide (in words) / Paw Swelling mm (M ± SD) at 3 hours / Paw Swelling mm (M ± SD) at 6 hours: mice; for anti-inflammatory effects compared with nimesulide (in words): oral; for Paw Swelling mm (M ± SD) at 3 hours / Paw Swelling mm (M ± SD) at 6 hours: orally administered; for Paw Swelling mm (M ± SD) at 3 hours: 0.243 mM/Kg; for Paw Swelling mm (M ± SD) at 6 hours: 0.485 mM/Kg.

The test system of data set [3] is acetate-induced body twisting. Description: acetate-induced body twisting in mice (analgesic effect). Particulars: for analgesic effects compared with nimesulide (in words): oral.
Where [4] appears, read: orally administered, 0.485 mM/Kg.
Where [5] appears, read: orally administered, 0.97 mM/Kg.

For “4-nitro-2-[(4′-methoxy)-phenoxy]-methanesulfonyl aniline [S6]”, in data set [1], the “LD50 value (95% C.L.)” value is reported as 2355.5 mg/kg and the “toxicity relative to nimesulide (times lower)” value is on record as “about 4 times”. In data set [2], the “anti-inflammatory effects relative to nimesulide (times stronger)” value is recorded as “about 4 times”, the “anti-inflammatory effects compared with nimesulide (in words)” value is “significantly stronger than that of nimesulide”, the “Paw Swelling mm (M ± SD) at 3 hours” value stood at 0.58 ± 0.67 mm and the “Paw Swelling mm (M ± SD) at 6 hours” value worked out at 1.91 ± 0.66 mm. Moreover, the “analgesic effects compared with nimesulide (in words)” value in data set [3] is listed as “significantly stronger than nimesulide”. Also, the “No. of body-twistings (M ± SD) at 1 hour” value in data set [3] (setting [4]) was 11.4 ± 5.3. Also, in data set [3] (setting [5]), the “No. of body-twistings (M ± SD) at 1 hour” value was 10.8 ± 11.4.

Take `CS(=O)(=O)Nc1ccc([N+](=O)[O-])cc1Oc1ccccc1` [Nimesulide, nimesulide, reference compound]: in data set [2], the “Paw Swelling mm (M ± SD) at 3 hours” value worked out at 2.10 ± 1.39 mm and the “Paw Swelling mm (M ± SD) at 6 hours” value came to 2.58 ± 1.20 mm. Besides, the “No. of body-twisting (M ± SD) at 3 hours” value in data set [3] (setting [4]) turned out to be 11.1 ± 9.7. For the same compound, the “No. of body-twistings (M ± SD) at 1 hour” value in data set [3] (setting [5]) is recorded as 14.8 ± 11.7. The “No. of body-twisting (M ± SD) at 6 hours” value in data set [3] (orally administered, 0.97 (head: mg/Kg), at 6 hours) came to 21.00 ± 19.09.

In the case of `COc1ccc(Oc2cc([N+](=O)[O-])ccc2NS(C)(=O)=O)cc1.C[C@H]1CC[C@H](N)CC1` [S9, 4-nitro-2-[(4′-methoxy)-phenoxy]-methanesulfonyl aniline, trans-4-methyl-cyclohexylamine salt], in data set [1], the “LD50 value (95% C.L.)” value is 1223.3 mg/kg and the “toxicity relative to nimesulide (times lower)” value was “about 2 times”. Also, in data set [2], the “anti-inflammatory effects relative to nimesulide (times stronger)” value is recorded as 2 times, the “anti-inflammatory effects compared with nimesulide (in words)” value is listed as “significantly stronger than that of nimesulide” and the “Paw Swelling mm (M ± SD) at 3 hours” value was determined as 1.18 ± 0.65 mm. Besides, in data set [3], the “analgesic effects compared with nimesulide (in words)” value is listed as “significantly stronger than nimesulide”. The “No. of body-twisting (M ± SD) at 3 hours” value in data set [3] (setting [4]) was determined as 6.7 ± 6.2.
